Measured values as given in ChEMBL document CHEMBL2169792, “Synthesis of new 4-thiazolidinone-, pyrazoline-, and isatin-based conjugates with promising antitumor activity” (J Med Chem, 2012).

System: OVCAR-8
Experiment: Cytotoxicity against human OVCAR8 cells after 48 hrs by SRB assay
Type: functional
Settings: OVCAR-8, 48 h

Work on `COc1ccc(C2CC(c3ccc4ccccc4c3)=NN2C2=NC(=O)/C(=C3\C(=O)Nc4ccc(Br)cc43)S2)cc1` (stereo not drawn) yielded a GI50 of 0.032 µM, a TGI of 0.176 µM and a CC50 (read-out: LC50 (the source's name)) of 24.1 µM.
